The subject of data set [1] is Mus musculus. Description: In vivo inhibition of IRAK4 in CpG ODN 1826 induced C57BL/6 mouse assessed as blockade of TLR9 signalling by measuring TNFalpha levels at 3 mg/kg, po treated 1 hr prior to CpG ODN 1826 stimulation and measured after 1 hr by MSD assay. In kind it is functional. More on the design: scale not given: the % may be the effect or the level left.

The nature of data set [2]: Oral bioavailability in mouse at 300 mg/kg administered as suspension in 10% captisol. In kind it is ADME, organism-based. To be noted: in vivo.
A short description of data set [3]: Oral bioavailability in monkey at 1 mg/kg. The following applies: rhesus monkey, in vivo. It is filed as ADME, organism-based, Macaca mulatta.
Data set [4] in a line: AUC (infinity) in mouse at 5 mg/kg, po. In kind it is ADME, organism-based. More on the design: dose 5 mg/kg, route oral, time infinity. The following applies: in vivo.
Data set [5] is described as follows: Plasma clearance in rat at 1 mg/kg, iv. It is filed as ADME, organism-based.
Data set [6] can be described thus: Plasma clearance in monkey at 1 mg/kg, iv. It is filed as ADME, organism-based, Macaca mulatta. The following applies: rhesus monkey.
The nature of data set [7]: Kinetic aqueous solubility of the compound in PBS buffer at pH 7.4 incubated for 24 hrs under shaking condition by LC-CLND assay. It is filed as physicochemical. To be noted: PBS buffer, pH 7.4; read-out: Kinetic_solubility.
Data set [8] is described as follows: AUC (infinity) in mouse at 300 mg/kg, po administered as suspension in 10% captisol. The following applies: in vivo. It is filed as ADME, organism-based. Further details: dose 300 mg/kg, route oral, time infinity.
A short description of data set [9]: Oral bioavailability in rat at 1 mg/kg. It is filed as ADME, organism-based. The following applies: in vivo.
Data set [10] in a line: Half-life in rat at 1 mg/kg, po. It is filed as ADME, organism-based. To be noted: in vivo.
The nature of data set [11]: AUC (infinity) in mouse at 300 mg/kg, po administered as suspension in MCT. Further details: dose 300 mg/kg, route oral, time infinity. To be noted: in vivo. It is filed as ADME, organism-based.
Data set [12] in a line: Half-life in mouse at 100 mg/kg, po administered as suspension in 10% captisol. In kind it is ADME, organism-based. The following applies: in vivo.
The subject of data set [13] is Mus musculus. As to the kind of experiment: In vivo inhibition of IRAK4 in CpG ODN 1826 induced C57BL/6 mouse assessed as blockade of TLR9 signalling by measuring IL-6 levels at 100 mg/kg, po treated 1 hr prior to CpG ODN 1826 stimulation and measured after 1 hr by MSD assay. It is filed as functional. More on the design: scale not given: the % may be the effect or the level left.

Values after ≈ are worked out from the molar mass of the structure shown.

The text below walks through data of ChEMBL document CHEMBL4359811, “Development of Potent and Selective Pyrazolopyrimidine IRAK4 Inhibitors” (J Med Chem, 2019).

A word on the bioavailability: it is the share of a dose that reaches the circulation, judged against a reference dose that is usually intravenous. Usually AUC(0-inf) stands for total exposure, with the tail of the curve extrapolated. One may read the clearance as the rate of elimination divided by the concentration. Usually half-life stands for the time needed for the level to fall by half in the phase considered.

On to `C[C@]1(CO)Cc2cc(NC(=O)c3cnn4cccnc34)c(N3CCOCC3)cc2O1`, for which the values for the Activity in the data set with Mus musculus [1] and in the data set on Mus musculus [13] were -18% and -91%, respectively. For the same compound, the values for the bioavailability in [2], in data set [3] and in [9] were 33%, 85% and 42%, respectively. Also, the values for the total exposure AUC(0-inf) in data set [4], in [8] and in data set [11] were 2.3 µM·h, 340 µM·h and 63 µM·h, respectively. Moreover, the figures for the clearance in [5] and in [6] were 6.6 mL/min/kg and 11 mL/min/kg, respectively. In addition, in [7], the solubility kinetic at 24 h was 10 µM (≈ 4.09 µg/mL). Besides, the results for the half-life in [10] and in data set [12] were 3.8 h and 3.3 h, respectively.
